# Measurements as given in BindingDB's records for doi:10.1016/j.bmcl.2010.04.069 (Boehringer Ingelheim Pharmaceuticals, 2010).
# Experiment: Inhibition of CDC42
smiles,measurement,value
"O=C(Nc1cc2cc[nH]c(=O)c2cc1Cl)[C@@H]1CNC[C@H]1c1ccc(Cl)cc1 [(3S,4R)-N-(7-chloro-1-oxo-1,2-dihydroisoquinolin-6-yl)-4-(4-chlorophenyl)pyrrolidine-3-carboxamide]",IC50,54 nM
